# Assay results from the supplement of paper PMC10307832.
# Key:
# Test in all cases: relative viability (nuclei count vs DMSO), 5 days (fraction); higher = more cells survive
# Crizotinib + Bortezomib = compound: C[C@@H](Oc1cc(-c2cnn(C3CCNCC3)c2)cnc1N)c1c(Cl)ccc(F)c1Cl [Crizotinib] + CC(C)C[C@H](NC(=O)[C@H](Cc1ccccc1)NC(=O)c1cnccn1)B(O)O [Bortezomib] (partner 0.002 µM)
# Procedure, shortened: (§1)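 Lung cancer cell lines in 1536-well plates got either a single drug or a fixed anchor-drug dose together with five library-drug doses (not always all listed) in √10 steps, by pin tool, on the day after seeding. Nuclei were counted after 5 days, and relative viability is the treated-to-vehicle ratio of nuclei counts. Values are medians of duplicate plates.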
# Carfilzomib + Tozasertib = compound: CC(C)C[C@H](NC(=O)[C@H](CCc1ccccc1)NC(=O)CN1CCOCC1)C(=O)N[C@@H](Cc1ccccc1)C(=O)N[C@@H](CC(C)C)C(=O)[C@@]1(C)CO1 [Carfilzomib] + Cc1cc(Nc2cc(N3CCN(C)CC3)nc(Sc3ccc(NC(=O)C4CC4)cc3)n2)n[nH]1 [Tozasertib] (partner 0.1 µM)
# Procedure, shortened: as §1
# Carfilzomib + Foretinib = compound: CC(C)C[C@H](NC(=O)[C@H](CCc1ccccc1)NC(=O)CN1CCOCC1)C(=O)N[C@@H](Cc1ccccc1)C(=O)N[C@@H](CC(C)C)C(=O)[C@@]1(C)CO1 [Carfilzomib] + COc1cc2c(Oc3ccc(NC(=O)C4(C(=O)Nc5ccc(F)cc5)CC4)cc3F)ccnc2cc1OCCCN1CCOCC1 [Foretinib] (partner 0.25 µM)
# Procedure, shortened: as §1
# Carfilzomib + Pemetrexed = compound: CC(C)C[C@H](NC(=O)[C@H](CCc1ccccc1)NC(=O)CN1CCOCC1)C(=O)N[C@@H](Cc1ccccc1)C(=O)N[C@@H](CC(C)C)C(=O)[C@@]1(C)CO1 [Carfilzomib] + Nc1nc2[nH]cc(CCc3ccc(C(=O)N[C@@H](CCC(=O)O)C(=O)O)cc3)c2c(=O)[nH]1 [Pemetrexed] (partner 0.2 µM)
# Procedure, shortened: as §1
Cell Line,relative viability (Crizotinib + Bortezomib; first compound 0.01 µM),relative viability (Crizotinib + Bortezomib; first compound 0.03162 µM),relative viability (Crizotinib + Bortezomib; first compound 0.3162 µM),relative viability (Crizotinib + Bortezomib; first compound 1 µM),relative viability (Carfilzomib + Tozasertib; first compound 0.001 µM),relative viability (Carfilzomib + Tozasertib; first compound 0.003162 µM),relative viability (Carfilzomib + Tozasertib; first compound 0.01 µM),relative viability (Carfilzomib + Tozasertib; first compound 0.03162 µM),relative viability (Carfilzomib + Tozasertib; first compound 0.1 µM),relative viability (Carfilzomib + Foretinib; first compound 0.001 µM),relative viability (Carfilzomib + Foretinib; first compound 0.003162 µM),relative viability (Carfilzomib + Foretinib; first compound 0.01 µM),relative viability (Carfilzomib + Foretinib; first compound 0.03162 µM),relative viability (Carfilzomib + Foretinib; first compound 0.1 µM),relative viability (Carfilzomib + Pemetrexed; first compound 0.001 µM),relative viability (Carfilzomib + Pemetrexed; first compound 0.003162 µM),relative viability (Carfilzomib + Pemetrexed; first compound 0.01 µM),relative viability (Carfilzomib + Pemetrexed; first compound 0.03162 µM),relative viability (Carfilzomib + Pemetrexed; first compound 0.1 µM),relative viability (Crizotinib + Bortezomib; first compound 0.1 µM)
201T,1.07,1.09,1.14,1.2,0.957,1,1.04,0.993,0.754,1.13,1.14,1.16,1.02,0.29,0.33,0.33,0.337,0.351,0.312,–
A549,–,–,–,–,–,–,–,–,–,0.86,0.966,0.946,0.0732,0.0218,–,–,–,–,–,–
A-427,0.91,1.03,–,0.999,0.207,0.236,0.198,0.099,0.103,1.02,1.13,1.09,0.474,0.121,0.951,1.02,0.983,0.842,0.183,0.953
ABC-1,0.277,0.368,0.279,0.299,0.196,0.193,0.196,0.212,0.211,0.912,0.815,0.292,0.17,0.224,–,–,–,–,–,0.292
BEN,0.862,0.788,0.815,0.78,0.554,0.547,0.591,0.553,0.421,0.575,0.69,0.577,0.577,0.339,0.743,0.778,0.787,0.599,0.352,–
CAL-12T,0.991,1.02,–,0.907,0.313,0.393,0.333,0.251,0.125,1.08,1.1,1.06,0.807,0.103,1.19,1.37,1.15,0.832,0.168,1.13
COR-L23,0.927,0.9,0.989,0.96,0.216,0.319,0.216,0.0505,0.0802,0.991,1.16,0.996,0.196,0.0831,0.2,0.187,0.185,0.123,0.0834,0.915
COR-L 105,0.825,0.778,0.699,0.941,0.328,0.311,0.411,0.263,0.225,1.31,1.13,1.05,0.779,0.26,1.24,1.09,1.19,0.469,0.317,0.787
Calu-6,0.936,0.988,0.892,0.958,–,–,–,–,–,0.889,0.933,0.842,0.127,0.0591,–,–,–,–,–,1.03
